In patent US9096615B2, “Bridged bicyclic amino thiazine dioxide compounds as inhibitors of beta-secretase and methods of use thereof” (AMGEN INC., priority 2013, dated 2015):

Experiments:
human Bace2 protein = target: T1, human Bace2 protein (Homo sapiens, UniProt Q9Y5Z0); experiment: In vitro enzymatic BACE2 FRET assay; format: biochemical; details: average IC50; read-out: BACE2 Enzyme assay IC50
T1 construct: V5 (C); 6-His (C)
T1 sequence (Q9Y5Z0 63-518): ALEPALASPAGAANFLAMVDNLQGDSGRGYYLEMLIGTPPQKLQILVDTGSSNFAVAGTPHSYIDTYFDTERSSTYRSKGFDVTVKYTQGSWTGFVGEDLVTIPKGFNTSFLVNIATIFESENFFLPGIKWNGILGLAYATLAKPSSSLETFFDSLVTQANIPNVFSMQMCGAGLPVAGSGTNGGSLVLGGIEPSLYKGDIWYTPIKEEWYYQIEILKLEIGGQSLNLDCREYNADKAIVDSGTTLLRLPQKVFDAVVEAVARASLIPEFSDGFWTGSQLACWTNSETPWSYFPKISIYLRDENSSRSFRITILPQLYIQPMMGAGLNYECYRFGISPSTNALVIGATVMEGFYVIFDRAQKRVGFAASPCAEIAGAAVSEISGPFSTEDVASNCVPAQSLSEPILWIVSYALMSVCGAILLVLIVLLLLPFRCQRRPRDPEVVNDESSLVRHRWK
Experimental: In Vitro Enzymatic BACE2 FRET (Fluorescence Resonance Energy Transfer) Assay
Enzyme Assay Data in the Table 3
The assay buffer used in this screen is 0.05 M acetate, pH 4.2, 10% DMSO final, 100 uM genapol (which is a nonionic detergent, below its Critical Micelle Concentration). The Beta Secretase2 enzyme (human Bace2 protein with C-terminal V5 and 6-His tag; 0.2 nM) is pre-incubated for one hour with inhibitors, typically in about 1 uL of DMSO according to a serial dilution, are added thereto. This assay is effectively started by the addition of FRET substrate (50 nM) and the combination is incubated for one hour. Final assay concentration of about 0.64 nM. The FRET assay is terminated with by addition of Tris buffer, which raises the pH to neutrality, and the fluorescence is determined. The FRET substrate is a peptide with commercially available fluorophore and quencher, on opposite sides of the BACE cleavage site. Proteolytic cleavage of the FRET substrate releases quenching of fluorescence (excitation 488 nm and […]).

[1] = test system: Aβ40 in conditioned medium of cells stably expressing Amyloid Precursor Protein (APP); experiment: In vitro BACE cell-based assay (HEK cell assay, Aβ40 sandwich ELISA); details: Homo sapiens, HEK293; average IC50; read-out: BACE1 cell assay IC50
How it was run: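 APP-stable cells were cultured 24 h at 37 °C, then given compound as 10-point dose-response (top 100 μM or 10 μM; 0.1% DMSO final) for 24 h. Aβ40 in conditioned medium was measured by sandwich ELISA (pAb40 capture, biotinylated 6E10 detection, Eu time-resolved fluorescence). IC50 from percent inhibition versus concentration.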

| SMILES | IC50 (human Bace2 protein) [nM] | IC50 [1] [nM] |
| --- | --- | --- |
| COc1cnc2c(Nc3ccc(F)c([C@@]4(C)N=C(N)[C@@]5(C)CC[C@@H]4S5(=O)=O)c3)ncc(F)c2c1 [Example 78, N-(3-((1S,2R,5R)-4-amino-2,5-dimethyl-8,8-dioxido-8-thia-3-azabicyclo[3.2.1]oct-3-en-2-yl)-4-fluorophenyl)-5-fluoro-3-methoxy-1,7-naphthyridin-8-amine] | 5 | 12 |
| CC#CCOc1cnc(C(=O)Nc2ccc(F)c([C@@]3(C)N=C(N)[C@@]4(C)CC[C@@H]3S4(=O)=O)c2)cn1 [Example 82, N-(3-((1S,2R,5R)-4-amino-2,5-dimethyl-8,8-dioxido-8-thia-3-azabicyclo[3.2.1]oct-3-en-2-yl)-4-fluorophenyl)-5-(2-butyn-1-yloxy)-2-pyrazinecarboxamide] | 3 | 0.07 |
| C[C@]1(c2cc(Nc3nccc4cc(C#N)cnc34)ccc2F)N=C(N)[C@@]2(CF)CC[C@@H]1S2(=O)=O [Example 100, 8-((3-((1S,2R,5R)-4-amino-5-(fluoromethyl)-2-methyl-8,8-dioxido-8-thia-3-azabicyclo[3.2.1]oct-3-en-2-yl)-4-fluorophenyl)amino)-1,7-naphthyridine-3-carbonitrile] | 0.6 | 4 |
| COc1cnc2c(Nc3ccc(F)c([C@@]4(C)N=C(N)[C@@]5(CF)CC[C@@H]4S5(=O)=O)c3)nccc2n1 [Example 41, N-(3-((1S,2R,5R)-4-amino-5-(fluoromethyl)-2-methyl-8,8-dioxido-8-thia-3-azabicyclo[3.2.1]oct-3-en-2-yl)-4-fluorophenyl)-2-methoxypyrido[3,4-b]pyrazin-5-amine] | 10 | 15 |
| COc1cnc2c(Nc3ccc(F)c([C@@]4(C)N=C(N)[C@@]5(C)CC[C@@H]4S5(=O)=O)c3)ncnc2c1 [Example 132, N-(3-((1S,2R,5R)-4-amino-2,5-dimethyl-8,8-dioxido-8-thia-3-azabicyclo[3.2.1]oct-3-en-2-yl)-4-fluorophenyl)-7-methoxypyrido[3,2-d]pyrimidin-4-amine] | 51 | 3 |
| C[C@]1(c2cc(Nc3ncnc4cc(C(F)(F)F)cnc34)ccc2F)N=C(N)[C@@]2(C)CC[C@@H]1S2(=O)=O [Example 106, N-(3-((1S,2R,5R)-4-amino-2,5-dimethyl-8,8-dioxido-8-thia-3-azabicyclo[3.2.1]oct-3-en-2-yl)-4-fluorophenyl)-7-(trifluoromethyl)pyrido[3,2-d]pyrimidin-4-amine] | 67 | 6 |
| C#CCOc1cnc(C(=O)Nc2ccc(F)c([C@@]3(C)N=C(N)[C@@]4(CF)CC[C@@H]3S4(=O)=O)c2)c(C)n1 [Example 59, N-(3-((1S,2R,5R)-4-amino-5-(fluoromethyl)-2-methyl-8,8-dioxido-8-thia-3-azabicyclo[3.2.1]oct-3-en-2-yl)-4-fluorophenyl)-3-methyl-5-(2-propyn-1-yloxy)-2-pyrazinecarboxamide] | 3 | 1 |
| Cc1cc(OC(F)F)cnc1C(=O)Nc1ccc(F)c([C@@]2(C)N=C(N)[C@@]3(CF)CC[C@@H]2S3(=O)=O)c1 [Example 102, N-(3-((1S,2R,5R)-4-amino-5-(fluoromethyl)-2-methyl-8,8-dioxido-8-thia-3-azabicyclo[3.2.1]oct-3-en-2-yl)-4-fluorophenyl)-5-(difluoromethoxy)-3-methyl-2-pyridinecarboxamide] | 8 | 2 |
| C[C@]1(c2cc(NC(=O)c3ccc(Cl)cn3)ccc2F)N=C(N)[C@@]2(CF)CC[C@@H]1S2(=O)=O [Example 77, N-(3-((1S,2R,5R)-4-amino-5-(fluoromethyl)-2-methyl-8,8-dioxido-8-thia-3-azabicyclo[3.2.1]oct-3-en-2-yl)-4-fluorophenyl)-5-chloro-2-pyridinecarboxamide] | 1 | 3 |
| COc1cnc(C(=O)Nc2ccc(F)c([C@@]3(C)N=C(N)[C@@]4(CF)CC[C@@H]3S4(=O)=O)c2)c(C)c1 [Example 42, N-(3-((1S,2R,5R)-4-amino-5-(fluoromethyl)-2-methyl-8,8-dioxido-8-thia-3-azabicyclo[3.2.1]oct-3-en-2-yl)-4-fluorophenyl)-5-methoxy-3-methyl-2-pyridinecarboxamide] | 3 | 30 |

Continued, values first:

| IC50 (human Bace2 protein) [nM] | IC50 [1] [nM] | SMILES |
| --- | --- | --- |
| 18 | 4 | C#CCOc1ccc(C(=O)Nc2ccc(F)c([C@@]3(C)N=C(N)[C@@]4(CF)CC[C@@H]3S4(=O)=O)c2)nc1 [Example 52, N-(3-((1S,2R,5R)-4-amino-5-(fluoromethyl)-2-methyl-8,8-dioxido-8-thia-3-azabicyclo[3.2.1]oct-3-en-2-yl)-4-fluorophenyl)-5-(2-propyn-1-yloxy)-2-pyridinecarboxamide] |
| 15 | 6 | COc1cnc2c(Nc3ccc(F)c([C@@]4(C)N=C(N)[C@@]5(C)CC[C@@H]4S5(=O)=O)c3)nccc2n1 [Example 80, N-(3-((1S,2R,5R)-4-amino-2,5-dimethyl-8,8-dioxido-8-thia-3-azabicyclo[3.2.1]oct-3-en-2-yl)-4-fluorophenyl)-2-methoxypyrido[3,4-b]pyrazin-5-amine] |
| 20 | 7 | COc1cnc2c(Nc3ccc(F)c([C@@]4(C)N=C(N)[C@@]5(CF)CC[C@@H]4S5(=O)=O)c3)ncnc2c1 [Example 97, N-(3-((1S,2R,5R)-4-amino-5-(fluoromethyl)-2-methyl-8,8-dioxido-8-thia-3-azabicyclo[3.2.1]oct-3-en-2-yl)-4-fluorophenyl)-7-methoxypyrido[3,2-d]pyrimidin-4-amine] |
| 1 | 2 | Cc1cc(C#N)cnc1C(=O)Nc1ccc(F)c([C@@]2(C)N=C(N)[C@@]3(CF)CC[C@@H]2S3(=O)=O)c1 [Example 96, N-(3-((1S,2R,5R)-4-amino-5-(fluoromethyl)-2-methyl-8,8-dioxido-8-thia-3-azabicyclo[3.2.1]oct-3-en-2-yl)-4-fluorophenyl)-5-cyano-3-methyl-2-pyridinecarboxamide] |
| 22 | 35 | C[C@]1(c2cc(Nc3ncnc4cc(C#N)cnc34)ccc2F)N=C(N)[C@@]2(CF)CC[C@@H]1S2(=O)=O [Example 40, 4-((3-((1S,2R,5R)-4-amino-5-(fluoromethyl)-2-methyl-8,8-dioxido-8-thia-3-azabicyclo[3.2.1]oct-3-en-2-yl)-4-fluorophenyl)amino)pyrido[3,2-d]pyrimidine-7-carbonitrile] |
| 20 | 0.4 | C[C@]1(c2cc(Nc3nccc4nc(OCc5ncco5)cnc34)ccc2F)N=C(N)[C@@]2(C)CC[C@@H]1S2(=O)=O [Example 140, N-(3-((1S,2R,5R)-4-amino-2,5-dimethyl-8,8-dioxido-8-thia-3-azabicyclo[3.2.1]oct-3-en-2-yl)-4-fluorophenyl)-2-(1,3-oxazol-2-ylmethoxy)pyrido[3,4-b]pyrazin-5-amine] |
| 18.5 | 16.7 | COc1cnc2c(Nc3ccc(F)c([C@@]4(C)N=C(N)[C@@]5(CF)CC[C@@H]4S5(=O)=O)c3)nccc2c1 [Example 56, N-(3-((1S,2R,5R)-4-amino-5-(fluoromethyl)-2-methyl-8,8-dioxido-8-thia-3-azabicyclo[3.2.1]oct-3-en-2-yl)-4-fluorophenyl)-3-methoxy-1,7-naphthyridin-8-amine] |
